According to patent US7365154B2, “Peptides antagonistic to an anti-angiogenic antibody and uses therefor” (Centocor, Inc., priority 2003, dated 2008):
“Also recorded” adds a separate entry of the source.

Legend:
[1] = system: A375.S2 cells (human melanoma cells); assay: Flow cytometry of CNTO95 binding to surface integrins of A375.S2 cells with or without peptides; assay type: cell-based; settings: CNTO95 only 10 ug/ml, no peptide
Procedure: For the detection of surface integrins, A375.S2 cells (human melanoma cells) were harvested, rinsed, suspended in unsupplemented RPMI media. The antibody, CNTO95, was incubated at a final concentration of 10 ug/ml with or without peptides at the concentrations given in Table 1 for 1 hr. Then, the cell solution was added and incubated for an additonal 60 minutes on ice followed by addition of PE-labeled goat anti-human antibody IgG-Fc (10 ug/ml). Absence of primary antibody or substitution of primary antibody with isotype matched antibody served as negative controls. Cells were immediately analyzed with a FACS Scan II flow cytometer (Becton Dickinson, Mountain View, Calif.). […] For simplicity, the mean channel fluorescence for each peak was used as the relative staining value (Table 5).

CEN2319 coated plates = assay: ELISA of other antibodies on CEN2319 coated plates; assay type: binding; settings: negative control antibodies
Procedure: (§1) To verify the binding activity of synthetic peptides to CNTO95 mAb, ELISAs were performed using peptide-coated plates. PRO-Bind ELISA plates (Falcon) were coated with 100 μl (100 μg/ml) of either CEN 2319, CEN2322 or PBS buffer. Peptide-charged ELISA plates were incubated with 100 μl of various concentrations of CNTO95 mAb for 2 hours at 37° C., and the wells then were washed with PBS plus 0.5% Tween 20 (PBST). Binding was detected with a 1:5,000 dilution of peroxidase-conjugated goat anti-human IgG, Fc gamma fragment antibody (Jackson) and color development with 3,3′,5,5′-tetramethyl-benzidine dihydrochloride (TMB). The reaction was detected by reading the absorbance at 450 nm. PBS-coated wells were used as background control. […] Another set of negative control was performed using mAb CNTO1275 (FIG. 4C). The binding signal is negative.

[2] = system: M21, human melanoma cells; assay: Cell adhesion assay on vitronectin coated plates, CNTO95 with peptides; assay type: cell-based; settings: FIG. 7
Procedure: For cell adhesion assays, Microtiter plates (Linbro-Titertek, ICN Biomedicals, Inc) were coated at 4° C. overnight with vitronectin (1 mg/ml). Immediately before use plates were rinsed with PBS and blocked for 1 hour with 1% BSA/PBS (pH 7.4). Adherent cells (M21, human melanoma cells) were labeled with Calcein AM fluorescent dye (Molecular Probes, Eugene, Oreg.) according to the manufacturer's instructions, harvested, washed twice, and suspended in 0.1% BSA in DMEM medium. Various concentration of Antibodies were incubated with peptides for 1 hrs. Cell density was adjusted to 5×10^5/ml and they were incubated with antibody and peptide solution for 15 min at 37° C. The cell-antibody mixture was added to wells (100 μl per well) and incubated for 1 h at 37° C. Plates were rinsed twice with PBS to remove unbound cells and adhesion was measured in a fluorescence plate reader (Fluoroskan) at 485-538 nm. Cell adhesion to BSA-coated wells served as a negative control. Isotype matched antibodies served as a negative control.

CNTO95 mAb = assay: ELISA for CNTO95 binding to synthetic peptide-coated plates; design: species or system human; settings: plates coated with 100 μg/ml peptide, absorbance at 450 nm
Procedure: as §1

[3] = system: CNTO95 mAb binding to integrin αVβ3; assay: Competitive ELISA on plates coated with integrin αVβ3; design: species or system human; settings: peptide 0 to 200 μg/ml
Procedure: (§2) Competitive ELISA on microtiter plates coated with integrins αVβ3 or αVβ5 were carried out to evaluate the binding specificity for CEN2319 peptide to CNTO95 mAb. 100 ul of 5 μg/ml either αVβ3 or αVβ5 (Chemicon, Temacula, Calif.) was coated on the ELISA plates at […] over night. Then, 100 μl of 2 μg/ml CNTO95 was pre-incubated at room temperature for 30 minutes with various concentration peptides (100 μl), ranging from 0 to 200 μg/ml. The peptide-antibody mixtures were then added to the integrin-coated microwells. Following incubation at 37° C. for 2 hours, the plates were washed thoroughly, and bound CNTO95 was detected using peroxidase-conjugated goat anti-human IgG, Fc gamma fragment antibody (1:5,000 dilution), followed by substrate addition as above.

[4] = system: CNTO95 mAb binding to integrin αVβ5; assay: Competitive ELISA on plates coated with integrin αVβ5; design: species or system human; settings: peptide 0 to 200 μg/ml
Procedure: as §2

CNTO95 [5] = assay: Positional substitution analysis: peptides spotted on nitrocellulose membrane probed with CNTO95; assay type: binding, human; design: key: +++: very strong; ++: strong; +: equivalent; ±: weak; Blank: negative; settings: CEN2319 with one position substituted, + = equivalent
Procedure: In order to further understand the contribution of each amino acid residue in the binding, systematic substitution at each position were made and tested. The binding analysis was carried out by spotting the various peptides on a nitrocellulose membrane and probing with CNTO95 followed by HRP-conjugated goat-anti-human Fc antibody and color developed using a peroxidase substrate.

CNTO95 [6] = assay: Titration microcalorimetry of synthetic peptides with CNTO95; assay type: binding, human
Procedure: Titration microcalorimetry is a technique used to measure equilibrium binding affinity by monitoring the enthalpy of binding as a function of titrant added to second molecule at fixed temperature. To determine binding affinities and stoichiometries of synthetic peptides for CNTO95, titration calorimetry experiments were carried out with a Microcal (Amherst, Mass.) MCS isothermal titration calorimeter. Protein concentrations were measured by absorbance at 280 nm. Aliquots of peptide were titrated into a fixed concentration of CNTO95 at 3 μM in Dulbecco's PBS. Heats of binding are monitored with each injection. Peptides were added until the observed heats approach the heats of diluted peptides into buffer. Calorimetry data were analyzed with Microcal ORIGIN software according to a single-site binding model in each case (Wiseman et al., Anal. Biochem. 179: 131-137, 1989). The model includes an equilibrium binding constant (Kd), a molar binding enthalpy change (ΔH) and a molar binding ratio for the binding reaction at 25° C. Table 3 gives the calculated CNTO95 binding properties of synthetic peptides from titration calorimetry data.

## CNTO95: fully human IgG1, kappa monoclonal antibody recognizing integrins αVβ3 and αVβ5
[1]
  Mean Channel Fluorescence: 89.7

## CNTO1275: another human mAb to an unrelated antigen
CEN2319 coated plates
  antibody binding to CEN2319 coated plates: negative

## DFRSWWDLEE (Phage Library Derived Sequence) [CEN2553, alternate antagonist peptide, 10-mer]
[2]
  effect on the inhibition of cellular adhesion by CNTO95 to vitronectin coated plates: indistinguishable from the peptide CEN2319

## DFRSWWDLSGYR [CEN2319]
CNTO95 mAb
  CNTO95 mAb binding to peptide-coated plates: recognized specifically; also recorded: specific binding
[3]
  competition with CNTO95 binding to αVβ3 (in words): inhibits
[4]
  competition with CNTO95 binding to αVβ5 (in words): significant inhibition; also recorded: inhibits
CNTO95 [5]; listed as D1D
  Intensity (relative density of color at each spot): +
CNTO95 [5]; listed as D7D
  Intensity (relative density of color at each spot): ++
CNTO95 [5]; listed as F2F
  Intensity (relative density of color at each spot): +
CNTO95 [5]; listed as G10G
  Intensity (relative density of color at each spot): +
CNTO95 [5]; listed as L8L
  Intensity (relative density of color at each spot): ++
CNTO95 [5]; listed as R3R
  Intensity (relative density of color at each spot): +
CNTO95 [5]; listed as R12R
  Intensity (relative density of color at each spot): +
CNTO95 [5]; listed as S4S
  Intensity (relative density of color at each spot): +
CNTO95 [5]; listed as S9S
  Intensity (relative density of color at each spot): +
CNTO95 [5]; listed as W5W
  Intensity (relative density of color at each spot): ++
CNTO95 [5]; listed as W6W
  Intensity (relative density of color at each spot): +
CNTO95 [5]; listed as Y11Y
  Intensity (relative density of color at each spot): +

## DYRTA ADTTGLQ (DYRTAADTTGLQ; PEPTIDE (1)..(12) Residues 564 to 575 inclusive of human alpha V integrin subunit protein; listed as Homo sapiens) [CEN2322]
CNTO95 mAb
  CNTO95 mAb binding to peptide-coated plates: did not bind
[3]
  competition with CNTO95 binding to αVβ3 (in words): did not compete
[4]
  competition with CNTO95 binding to αVβ5 (in words): did not compete
CNTO95 [6]
  Comments (binding to CNTO95 by calorimetry): no evidence for CEN2322 peptide binding to CNTO95 mAb

## SPLFXPW [flanked by cysteine residues which form a disulfide bond]
CNTO95 mAb
  CNTO95 mAb binding to peptide-coated plates: no specific binding was detected
